Data published in patent publication US4686308A, “Novel physiologically active substance MH435” (Microbial Chemistry Research Foundation, priority 1985, dated 1987).
In brackets after ≈: the same amount, converted by molar mass.

Legend:
[1] = system: ts Src-NRK (at 33° C.) carcinoma form; assay: Effects on cultured carcinoma cells: ts Src-NRK (at 33° C.) carcinoma form; assay type: cell-based; conditions: 72 h, 3 days, cell count
L1210 leukemia cells = assay: Effects on cultured carcinoma cells: L1210; assay type: cell-based; conditions: Mus musculus, 72 h, 3 days, 37° C., cell count
Protocol: (§1) IC50 was measured by inoculating the respective cells in dished (3-5×10^4 cells/dish), incubating the cells for 1 day (at 37° C.; CO2 concentration, 5%), then adding the substance MH435-A, further incubating the resultant mixture for 3 days under the same conditions and finally counting the number of the cells.

[2] = biological target: T1, tyrosine specific protein kinase in the epidermal growth factor receptor (Homo sapiens, UniProt P00533); assay: Inhibitory activity against tyrosine specific protein kinase (epidermal growth factor receptor kinase), A-431 membrane fraction; assay type: biochemical; conditions: EGF, 0° C., 30 min, read-out: 50% inhibitory concentration (tyrosine specific protein kinase) (converted)
T1 construct: membrane fraction of human epithelial carcinoma cells A-431; endogenous in cells; host or cells: A-431 human epithelial carcinoma cells, membrane fraction
T1 sequence (P00533 25-1210): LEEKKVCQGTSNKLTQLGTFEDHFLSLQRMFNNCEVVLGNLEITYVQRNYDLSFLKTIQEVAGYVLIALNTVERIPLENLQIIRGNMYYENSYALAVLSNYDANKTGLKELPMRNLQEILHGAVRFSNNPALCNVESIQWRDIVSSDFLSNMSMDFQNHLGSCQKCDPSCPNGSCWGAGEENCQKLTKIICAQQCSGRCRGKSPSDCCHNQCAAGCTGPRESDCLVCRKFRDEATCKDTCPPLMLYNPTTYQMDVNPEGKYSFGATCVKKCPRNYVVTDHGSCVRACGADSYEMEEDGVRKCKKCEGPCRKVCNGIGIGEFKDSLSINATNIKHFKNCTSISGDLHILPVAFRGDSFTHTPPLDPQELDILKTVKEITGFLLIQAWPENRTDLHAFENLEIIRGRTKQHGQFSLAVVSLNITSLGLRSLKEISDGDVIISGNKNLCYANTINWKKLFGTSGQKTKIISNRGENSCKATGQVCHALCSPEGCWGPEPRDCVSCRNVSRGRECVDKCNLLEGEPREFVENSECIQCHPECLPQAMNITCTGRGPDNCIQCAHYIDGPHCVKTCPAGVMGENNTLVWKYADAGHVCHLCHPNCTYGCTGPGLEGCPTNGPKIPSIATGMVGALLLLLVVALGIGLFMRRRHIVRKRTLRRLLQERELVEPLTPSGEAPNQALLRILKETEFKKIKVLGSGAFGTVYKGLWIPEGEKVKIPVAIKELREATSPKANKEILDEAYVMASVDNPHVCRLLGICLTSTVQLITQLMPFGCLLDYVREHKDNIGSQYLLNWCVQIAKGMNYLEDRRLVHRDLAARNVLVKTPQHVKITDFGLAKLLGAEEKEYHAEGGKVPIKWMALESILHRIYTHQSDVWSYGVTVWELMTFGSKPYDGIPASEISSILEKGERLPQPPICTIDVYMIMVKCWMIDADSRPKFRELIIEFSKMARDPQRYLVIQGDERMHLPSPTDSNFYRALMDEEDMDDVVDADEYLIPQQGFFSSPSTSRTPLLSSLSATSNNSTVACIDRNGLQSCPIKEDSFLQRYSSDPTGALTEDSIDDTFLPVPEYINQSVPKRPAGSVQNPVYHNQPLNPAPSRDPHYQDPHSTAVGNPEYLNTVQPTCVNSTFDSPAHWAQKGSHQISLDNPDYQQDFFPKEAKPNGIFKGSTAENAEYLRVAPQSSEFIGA
Protocol: In the above processes of incubation and purification, MH435 was traced by detecting the inhibition activity thereof by measuring the tyrosine specific protein kinase in test samples in accordance with the following method.
[Measurement of tyrosine specific protein kinase activity]
The measurement of tyrosin specific protein kinase activity was carried out by modifying the method of measuring enzyme activity described by G. Carpenter et al. in The Journal of Biological Chemistry, 254, 4874-4891 (1979) using the membrane fraction of human epithelial carcinoma cells A-431 with respect to the tyrosine specific protein kinase in the epidermal growth factor receptor. […] Then, ^32 P adsorbed on the filter paper was measured by counting the radioactivity (a). At the same time, count (b) was measured for the reaction product which was obtained by the same reaction and treated in the same manner as above except that the test sample was excluded, while counts (a') and (b') were measured for the reaction products in which the membrane fractions were further excluded, respectively. The inhibitory ratio with respect to the epidermal growth factor receptor kinase was then calculated from the equation

Acute toxicity (LD50) = conditions: mouse, in vivo, ip
Prot. vulgaris OX19 = assay: Antimicrobial activity, agar dilution method; assay type: cell-based; conditions: Proteus vulgaris, Muller-Hinton agar dilution
Description: (§2) Minimum inhibitory concentrations (MIC) of the substance against various bacteria determined by the agar dilution method using Muller-Hinton culture medium are shown in the following Table 4.

Sal. typhi T-63 = assay: Antimicrobial activity, agar dilution method; assay type: cell-based; conditions: Salmonella enterica
Description: as §2

B. Subtilis PCI 219 = assay: Antimicrobial activity, agar dilution method; assay type: cell-based; conditions: Bacillus subtilis, Muller-Hinton agar dilution
Description: as §2

E. coli NIHJ = assay: Antimicrobial activity, agar dilution method; assay type: cell-based; conditions: Escherichia coli, Muller-Hinton agar dilution
Description: as §2

Serr. marcessens = assay: Antimicrobial activity, agar dilution method; assay type: cell-based; conditions: Muller-Hinton agar dilution
Description: as §2

S. aureus MS8710 = assay: Antimicrobial activity, agar dilution method; assay type: cell-based; conditions: Staphylococcus aureus, Muller-Hinton agar dilution
Description: as §2

Pseu. aeruginosa A3 = assay: Antimicrobial activity, agar dilution method; assay type: cell-based; conditions: Pseudomonas aeruginosa, Muller-Hinton agar dilution
Description: as §2

K. pneumoniae PCI 602 = assay: Antimicrobial activity, agar dilution method; assay type: cell-based; conditions: Klebsiella pneumoniae, PCI602, Muller-Hinton agar dilution
Description: as §2

S. aureus Smith = assay: Antimicrobial activity, agar dilution method; assay type: cell-based; conditions: Staphylococcus aureus, Muller-Hinton agar dilution
Description: as §2

S. aureus MS9610 = assay: Antimicrobial activity, agar dilution method; assay type: cell-based; conditions: Staphylococcus aureus, Muller-Hinton agar dilution
Description: as §2

B. cereus ATCC 10702 = assay: Antimicrobial activity, agar dilution method; assay type: cell-based; conditions: Bacillus cereus, ATCC10702, Muller-Hinton agar dilution
Description: as §2

Coryn. bovis 1810 = assay: Antimicrobial activity, agar dilution method; assay type: cell-based; conditions: Corynebacterium bovis, Muller-Hinton agar dilution
Description: as §2

M. lysodelkticus IFO 333 = assay: Antimicrobial activity, agar dilution method; assay type: cell-based; conditions: Muller-Hinton agar dilution
Description: as §2

S. aureus 209 P = assay: Antimicrobial activity, agar dilution method; assay type: cell-based; conditions: Staphylococcus aureus, Muller-Hinton agar dilution
Description: as §2

IMC carcinoma cells = assay: Effects on cultured carcinoma cells: IMC carcinoma; assay type: cell-based; conditions: 72 h, 3 days, 37° C., cell count
Protocol: as §1

[3] = system: ts Src-NRK (at 39° C.) normal form; assay: Effects on cultured carcinoma cells: ts Src-NRK (at 39° C.) normal form; assay type: cell-based; conditions: 72 h, 3 days, cell count
A-431 cells = assay: Effects on cultured carcinoma cells: A-431; assay type: cell-based; conditions: Homo sapiens, 72 h, 3 days, 37° C., cell count
Protocol: as §1

Ki-NRK cells = assay: Effects on cultured carcinoma cells: Ki-NRK; assay type: cell-based; conditions: 72 h, 3 days, 37° C., cell count
Protocol: as §1

O=CNC=Cc1cc(O)ccc1O [MH435-A]
IC50 [1]: 2 µg/mL (≈ 11.2 µM)
IC50 (L1210 leukemia cells): 2.41 µg/mL (≈ 13.5 µM)
IC50 [2]: 3.07 µM
LD50 (Acute toxicity (LD50)): ≥ 200 mg/kg
MIC (Prot. vulgaris OX19): 100 µg/mL (≈ 558 µM)
MIC (Sal. typhi T-63): 100 µg/mL (≈ 558 µM)
MIC (B. Subtilis PCI 219): 100 µg/mL (≈ 558 µM)
MIC (E. coli NIHJ): 100 µg/mL (≈ 558 µM)
MIC (Serr. marcessens): 100 µg/mL (≈ 558 µM)
MIC (S. aureus MS8710): 50 µg/mL (≈ 279 µM)
MIC (Pseu. aeruginosa A3): 25 µg/mL (≈ 140 µM)
MIC (K. pneumoniae PCI 602): 100 µg/mL (≈ 558 µM)
MIC (S. aureus Smith): 25 µg/mL (≈ 140 µM)
MIC (S. aureus MS9610): 50 µg/mL (≈ 279 µM)
MIC (B. cereus ATCC 10702): 100 µg/mL (≈ 558 µM)
MIC (Coryn. bovis 1810): 100 µg/mL (≈ 558 µM)
MIC (M. lysodelkticus IFO 333): 50 µg/mL (≈ 279 µM)
MIC (S. aureus 209 P): 50 µg/mL (≈ 279 µM)
IC50 (IMC carcinoma cells): 3.01 µg/mL (≈ 16.8 µM)
IC50 [3]: 3.6 µg/mL (≈ 20.1 µM)
IC50 (A-431 cells): 3.6 µg/mL (≈ 20.1 µM)
IC50 (Ki-NRK cells): 1.7 µg/mL (≈ 9.49 µM)

O=CNCCc1cc(O)ccc1O [MH435-B]
IC50 [2]: 33.1 µM
MIC (Prot. vulgaris OX19): 50 µg/mL (≈ 276 µM)
MIC (Sal. typhi T-63): 100 µg/mL (≈ 552 µM)
MIC (B. Subtilis PCI 219): 100 µg/mL (≈ 552 µM)
MIC (E. coli NIHJ): 100 µg/mL (≈ 552 µM)
MIC (Serr. marcessens): 100 µg/mL (≈ 552 µM)
MIC (S. aureus MS8710): 50 µg/mL (≈ 276 µM)
MIC (Pseu. aeruginosa A3): 50 µg/mL (≈ 276 µM)
MIC (K. pneumoniae PCI 602): 100 µg/mL (≈ 552 µM)
MIC (S. aureus Smith): 50 µg/mL (≈ 276 µM)
MIC (S. aureus MS9610): 50 µg/mL (≈ 276 µM)
MIC (B. cereus ATCC 10702): 100 µg/mL (≈ 552 µM)
MIC (Coryn. bovis 1810): 100 µg/mL (≈ 552 µM)
MIC (M. lysodelkticus IFO 333): 50 µg/mL (≈ 276 µM)
MIC (S. aureus 209 P): 50 µg/mL (≈ 276 µM)
